Where “and” joins values, the source holds several entries; their conditions need not be identical. Equal values may be shown once.
Target: Cytochrome P450 3A4 (Homo sapiens, UniProt P08684)
Assay: For testosterone hydroxylase activity the final microsomal protein concentration was 0.5 mg/mL, the substrate concentration was 50 uM and the LC-MS internal standard was D7-labeled 6beta -hydroxytestosterone.

Cytochrome P450 3A4, sequence (P08684 whole entry): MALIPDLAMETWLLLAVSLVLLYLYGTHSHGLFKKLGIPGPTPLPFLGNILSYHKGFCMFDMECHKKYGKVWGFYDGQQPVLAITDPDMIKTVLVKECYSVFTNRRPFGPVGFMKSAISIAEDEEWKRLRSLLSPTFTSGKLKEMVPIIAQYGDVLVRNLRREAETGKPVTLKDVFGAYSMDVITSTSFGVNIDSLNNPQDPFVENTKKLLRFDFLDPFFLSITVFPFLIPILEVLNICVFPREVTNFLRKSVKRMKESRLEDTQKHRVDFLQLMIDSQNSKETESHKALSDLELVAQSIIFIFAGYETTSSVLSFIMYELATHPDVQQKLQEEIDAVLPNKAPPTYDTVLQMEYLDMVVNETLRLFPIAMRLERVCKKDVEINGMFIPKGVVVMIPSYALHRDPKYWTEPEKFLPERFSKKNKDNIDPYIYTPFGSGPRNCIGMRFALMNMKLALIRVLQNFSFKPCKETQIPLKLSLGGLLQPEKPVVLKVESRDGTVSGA

IC50: 150 nM and 340 nM
Structure (SMILES): CC(C)c1nc(CN(C)C(=O)NC2(C(=O)N[C@H](CC[C@H](Cc3ccccc3)NC(=O)OCc3cncs3)Cc3ccccc3)CCNCC2)cs1
